Measurements as given in US9783796B2, “Amidase, gene for the same, vector, transformant, and method for production of optically active carboxylic acid amide and optically active carboxylic acid by using any one of those items” (KANEKA CORPORATION, priority 2007, dated 2017).
Entries after “also recorded” stand apart in the source; their conditions may differ. Where two headings read alike, the source gives them in different places.

What was measured:
purified enzyme (HCS) = experiment: Selective hydrolysis of racemic carboxylic acid amides with the purified enzyme solution (Examples 8 to 10); assay type: biochemical, Cupriavidus sp. KNK-J915; settings: 100 mM phosphate buffer pH 7.0, 30° C.; for conversion ratio: 1% substrate; for optical purity: product acid, 1% racemic substrate
Method: To 100 mM phosphate buffer (pH 7.0) were added 1% racemic pipecolic acid amide and the purified enzyme solution obtained in Example 1, and allowed to react at 30° C. Then high speed liquid chromatography analysis was conducted to determine the conversion ratio (%) and optical purity (% e.e.). […] Conversion ratio (%)=P/(S1+P)×100
(§1) (P: amount of product (mol), S1: amount of residual substrate (mol)) Optical purity (% e.e.)=(A−B)/(A+B)×100
(§2) (A represents the amount of the target enantiomer, and B represents the amount of the corresponding enantiomer.)
To 100 mM phosphate buffer solution (pH 7.0) were added 1% racemic indoline carboxylic acid amide and the purified enzyme solution obtained in Example 1. The obtained mixture was allowed to react at 30° C., and then the substrate and product in the reaction liquid were converted into derivatives with acetic anhydride. The conversion ratio (%) and optical purity (% e.e.) were determined by high speed liquid chromatography analysis of the obtained derivatives.
To 100 mM phosphate buffer (pH 7.0) were added 1% racemic phenyl propionic acid amide and the purified enzyme solution obtained in Example 1, and allowed to react at 30° C. The conversion ratio (%) and optical purity (% e.e.) were determined by high speed liquid chromatography analysis.

HCS = experiment: Substrate specificity of HCS; assay type: biochemical, Cupriavidus sp. KNK-J915; settings: for Relative activity (%): activity on (R,S)-nipecotamide set to 100, 1% substrate, 30° C., 100 mM phosphate buffer pH 7.0
Method: Next, the substrate specificity of HCS was analyzed. The substrate compound was added in a form of a 1% solution. The enzyme reaction was allowed to proceed at 30° C. in 100 mM phosphate buffer (pH 7.0). The resultant solution was analyzed under the high speed liquid chromatography analysis conditions A described in Example 1 or the high speed liquid chromatography analysis conditions B shown below.
High Speed Liquid Chromatography Analysis Condition B
Column: SUMICHIRAL OA-5000 (4.6 mmφ×150 mm, product of Sumika Chemical Analysis Service, Ltd.)
Eluant: 2 mM CuSO4 aqueous solution
(§3) Column temperature: 30° C.
Measurement wavelength: 254 nm

[1] = tested on: putative amidase derived from Ralstonia eutropha JMP134 strain; experiment: Selective hydrolysis of S-enantiomer in racemic N-benzylnipecotamide with culture solution of E. coli HB101 (pNRE); assay type: biochemical
Description: Primer 7 (SEQ ID NO:10 in the sequence listing) having the NdeI site added to the initiation codon site, and primer 8 (SEQ ID NO:11 in the sequence listing) having an SacI site immediately downstream of the termination codon were synthesized based on the base sequence (SEQ ID NO:9 in the sequence listing) encoding the putative amidase derived from Ralstonia eutropha JMP134 strain, which has high sequence identity to the base sequence of the present invention derived from Cupriavidus sp. KNK-J915 (FERM BP-10739) determined in Example 3. An amount of 50 μl of a buffer for ExTaq was prepared. This buffer contained the two primers (primer 7 and primer 8, each 50 pmol), chromosomal DNA derived from Ralstonia eutropha JMP134 strain (10 ng), dNTP (each 10 nmol) and ExTaq (2.5 U, product of TAKARA SHUZO Co., Ltd.). Heat denaturation (97° C., 1 minute), annealing (60° C., 1 minute), and an extension reaction (72° C., 1.5 minutes) were repeated for 30 cycles. The reaction fluid was cooled to 4° C. and subjected to agarose gel electrophoresis to confirm amplification of the DNA. […]
To 100 mM phosphate buffer (pH 7.0) were added 1% racemic N-benzylnipecotamide and the culture solution of E. coli HB101 (pNRE) obtained in Example 11, and allowed to react at 30° C. Thereafter, the conversion ratio (%) and optical purity (% e.e.) were determined by high speed liquid chromatography analysis. […]

E. coli HB101 (pNCS) = experiment: Selective hydrolysis of S-enantiomer in racemic nipecotamide with culture solution of E. coli HB101 (pNCS); assay type: biochemical, Escherichia coli; settings: pH 8.0, 25 hours, 45° C.; for optical purity: from racemic nipecotamide
Method: An amount of 10.1 g of racemic nipecotamide was dissolved in water to prepare a substrate solution having a pH adjusted to 8.0. To 200 ml of the prepared substrate solution was added 2 ml of a culture solution obtained by culturing E. coli HB101 (pNCS) as in Example 6, and stirred for 25 hours at 45° C. After completion of the reaction, the reaction liquid was heated for 30 minutes at 70° C., and centrifuged to remove solid matters including cells. Subsequently, the substrate and the product in the reaction liquid were converted into derivatives with benzyl chloroformate. The obtained derivatives were analyzed by high speed liquid chromatography to determine the conversion ratio (%) and optical purity (% e.e.). […] Conversion ratio (%)=P/(S1+P)×100
as §1, §2
High Speed Liquid Chromatography Analysis Condition
[Analysis of Conversion Ratio]
(§4) Column: YMC-A303 (4.6 mmφ×250 mm, product of YMC Co., Ltd.)
Eluant: 20 mM phosphate aqueous solution (pH 2.5)/acetonitrile=7/3
Column temperature: 35° C.
(§5) Measurement wavelength: 210 nm
[Optical Purity Analysis]
Column: CHIRALPAK AD-RH (4.6 mmφ×150 mm, product of DAICEL CHEMICAL INDUSTRIES, LTD.)
Column temperature: room temperature

[2] = Amidase activity of purified enzyme (production of N-benzylnipecotic acid, HPLC); assay type: biochemical; settings: 1% N-benzylnipecotamide, 100 mM phosphate buffer pH 7.0, 1 hour, 30° C.
Method: In the following examples, the amidase activity was determined by the following procedure. To 100 mM phosphate buffer (pH 7.0) were added 1% N-benzylnipecotamide and an enzyme solution, and allowed to react for 1 hour at 30° C. Then, the solution was analyzed under high speed liquid chromatography analysis conditions A. Enzyme activity which produces 1 μmol of N-benzylnipecotic acid per 1 minute under these conditions was defined as 1 unit.
High Speed Liquid Chromatography Analysis Condition A
as §4
Eluant: 20 mM phosphate aqueous solution (pH 2.5)/acetonitrile=9/1
as §3, §5

[3] = Optimum pH, optimum temperature and thermal stability of the amidase reaction of purified HCS; assay type: biochemical; settings: stable at or below this temperature
Method: The Optimum pH and optimum temperature of an amidase reaction of the purified enzyme obtained in Example 1, and thermal stability of the enzyme were determined by quantifying N-benzylnipecotic acid produced in the hydrolysis reaction using N-benzylnipecotamide as a substrate, by HPLC. For determination of the optimum pH, the reaction was allowed to proceed at each pH for 1 hour at 30° C., and stopped by addition of acetonitrile. The resultant solution was analyzed under the high speed liquid chromatography analysis conditions A described in Example 1. For determination of the optimum temperature, the reaction was allowed to proceed at each temperature for 1 hour, and stopped by addition of acetonitrile. The resultant solution was analyzed under the high speed liquid chromatography analysis conditions A described in Example 1. For determining the thermal stability, after incubation at each temperature for 30 minutes, the reaction was allowed to proceed for 1 hour, and stopped by addition of acetonitrile. The resultant solution was analyzed under the high speed liquid chromatography analysis conditions A described in Example 1.

| Molecule | amidase activity of HCS on the substrate (in words) (HCS) | Relative activity (%) (HCS) | other results |
| --- | --- | --- | --- |
| NC(=O)C1Cc2ccccc2N1 (centres unmarked) | particularly strong amidase activity; also recorded: especially strong activity | 64% | conversion ratio (purified enzyme (HCS)): 39.2% |
| O=C(NCc1ccccc1)C1CCCNC1 (racemic) [(R,S)-N-benzylnipecotamide] | particularly strong amidase activity; also recorded: especially strong activity | 49% | conversion ratio ([1]; 1% substrate, 100 mM phosphate buffer pH 7.0, 30° C.): 50.1% |
| NC(=O)C(O)c1ccccc1 (racemic) [(R,S)-mandelic acid amide] | particularly strong amidase activity; also recorded: especially strong activity | 49% | – |
| NC(=O)C1CCCNC1 (racemic) [(R,S)-nipecotamide] | particularly strong amidase activity; also recorded: especially strong activity | 100% | conversion ratio (E. coli HB101 (pNCS)): 50.2% |
| CC(C(N)=O)c1ccccc1 (racemic) [(R,S)-phenyl propionic acid amide] | – | 309% | conversion ratio (purified enzyme (HCS)): 36.0%; amidase activity of HCS on the substrate (in words) (HCS; listed as phenyl propionic acid amide): particularly strong amidase activity; amidase activity of HCS on the substrate (in words) (HCS; listed as phenylpropionic acid amide): especially strong activity |
| NC(=O)C1CCCCN1 (racemic) [(R,S)-pipecolic acid amide] | particularly strong amidase activity; also recorded: especially strong activity | 34% | conversion ratio (purified enzyme (HCS)): 18.3% |
| CC(N)C(N)=O (racemic) [D,L-alanine amide] | – | 0% | – |
| CC(C)CC(N)C(N)=O (racemic) [D,L-leucine amide] | – | 0% | – |
| NC(=O)C(N)Cc1ccccc1 (racemic) [D,L-phenylalanine amide] | weak amidase activity | 3.4% | – |
| NC(=O)C1CCCN1 (racemic) [D,L-proline amide] | – | 0% | – |
| NC(=O)CC(N)c1ccccc1 (racemic) [D,L-β-phenylalanine amide] | – | 0% | – |
| O=C(O)[C@H]1Cc2ccccc2N1 [(R)-indoline carboxylic acid] | – | – | optical purity (purified enzyme (HCS)): 97.8 % e.e. |
| NC(=O)[C@@H]1CCCNC1 [(R)-nipecotamide] | – | – | optical purity (E. coli HB101 (pNCS)): 98.3 % e.e. |
| O=C(O)[C@H]1CCCCN1 [(R)-pipecolic acid] | – | – | optical purity (purified enzyme (HCS)): 80.1 % e.e. |
| O=C(NCc1ccccc1)[C@@H]1CCCNC1 [(R)—N-benzylnipecotamide] | – | – | optical purity ([1]; residual amide, pH 7.0, 30° C.): 99.4 % e.e. |
| O=C(O)[C@H]1CCCNC1 [(S)-nipecotic acid] | – | – | optical purity (E. coli HB101 (pNCS)): 97.1 % e.e. |
| C[C@H](C(=O)O)c1ccccc1 [(S)-phenyl propionic acid] | – | – | optical purity (purified enzyme (HCS)): 89.1 % e.e. |
| NC(=O)c1ccccc1 [benzamide] | weak amidase activity | 5.4% | – |
| CC(C)C(N)=O [isobutylamide] | particularly strong amidase activity; also recorded: especially strong activity | 230% | – |
| CCC(N)=O [propionic acid amide] | particularly strong amidase activity; also recorded: especially strong activity | 59% | – |
| HCS: amidase purified from Cupriavidus sp. KNK-J915 strain (FERM BP-10739), amino acid sequence SEQ ID NO:1 (protein, listed as Cupriavidus sp.) MPTDIQTLQTRLHDGAVSRADVIAQAAQHAQQPDAHAVFLHTTFDTAAQVAKAADAACLAGKPLHPLAGLPVSVKDLFNIAGEASRAGSPVRSDALAATADATVVRRLRESGAALVGRTNMTEFAFSGVGINPHFGTPVNPADKQVARIPGGSSSGAAVSVALGLAVAGLGSDTGGSIRIPAALCGLTGFKPTARRVPLDGAFPLSYTLDTACAMARTVQDCVLVDSVIADQAVLPVIKGAAGIRLAIPRQVLLDDLDDTVARAFDRALGRLSAAGVQIEHIDLPELAELATINASGGFTAAEAHAIHRHVLATRREQYDPRVASRIDRGAAMSAADYVDLMRARLDWITRVAARLEGFDAVACPTVPMVAPPIAPLVADDALFFHTNALLLRNTSAFNFLDGCSISLPCHQPDELPVGLMLSHGALRDAQLLGTAIALESIVKPAA | – | – | specific activity of the purified enzyme [2]: 1.7 U/mg-protein; Thermal stability: temperature at which stable [3]: ≤ 50 °C |
